Data from patent US6472418B1, “Non-peptide NK1 receptors antagonists” (Warner-Lambert Company, priority 1998, dated 2002).

target: T1, Human NK1 Receptor (Homo sapiens, UniProt P25103); assay: In Vitro Human NK1 Receptor Binding Assay ([125I]Bolton-Hunter substance P displacement, IM9 cells); settings: Human lymphoma IM9 cells, [125I]Bolton-Hunter substance P (0.05-0.1 nM), 50 min at 21° C.; Table 1; read-out: NK1 binding IC50
T1 construct: endogenous in cells; host or cells: Human lymphoma IM9 cells (whole cells)
Protocol: They have been evaluated in an NK1-receptor binding assay which is described below.
Human lymphoma IM9 cells were grown in RPMI 1640 culture medium supplemented with 10% fetal calf serum and 2 mM glutamine and maintained under an atmosphere of 5% CO2. Cells were passaged every 3-4 days by reseeding to a concentration of 4-8×10^6/40 ml per 175 cm^2 flask. Cells were harvested for experiments by centrifugation at 1000 g for 3 min. Pelleted cells were washed once by resuspension into assay buffer (50 mM Tris HCl pH 7.4, 3 mM MnCl2, 0.02% BSA, […] bacitracin, […] chymostatin, 2 mM phosphoramidon, […] leupeptin) and repeating the centrifugation step before resuspending at a concentration of 2.5×10^6 cells/mL assay buffer. Cells ([…]) were incubated with [^125I]Bolton-Hunter substance P (0.05-0.1 nM) in the presence and absence of varying concentrations of test compounds for 50 min at 21° C. Non-specific binding (10% of the total binding observed under these conditions) was defined by […] [Sar^9, Met(02)^11] substance P. Reactions were terminated by rapid filtration under vacuum onto GF\C filters presoaked in 0.2% PEI for 1-2 h, using a Brandel cell harvester. Filters were washed with 6×1 ml ice-cold Tris HCl (50 mM, pH 7.4) and radioactivity bound determined using a gamma couter. Results were analyzed using iterative curve fitting procedures in RS1 or Graphpad Inplot.

T1 sequence (P25103 whole entry): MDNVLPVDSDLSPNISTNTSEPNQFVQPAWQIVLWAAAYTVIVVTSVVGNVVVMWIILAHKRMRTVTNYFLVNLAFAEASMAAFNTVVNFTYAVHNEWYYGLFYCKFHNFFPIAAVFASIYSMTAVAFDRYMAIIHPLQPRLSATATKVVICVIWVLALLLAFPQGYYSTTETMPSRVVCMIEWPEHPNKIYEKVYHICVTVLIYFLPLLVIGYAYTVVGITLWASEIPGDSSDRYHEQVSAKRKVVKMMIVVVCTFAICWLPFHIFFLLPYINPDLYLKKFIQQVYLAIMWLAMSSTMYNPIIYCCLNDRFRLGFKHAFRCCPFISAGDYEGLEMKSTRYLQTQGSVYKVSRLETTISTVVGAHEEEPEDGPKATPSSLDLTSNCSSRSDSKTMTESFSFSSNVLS

| IC50 [nM] | SMILES |
| --- | --- |
| 9.1 | C[C@H](NC(=O)[C@@H](Cc1c[nH]c2ccccc12)NCc1cccc(OC(F)(F)F)c1)c1ccccc1 (relative stereo) [Example 16, 3-(1H-Indol-3-yl)-N-(1-phenyl-ethyl)-2-(3-trifluoromethoxy-benzylamino)-propionamide, [R-(R*,S*)]] |
| 344 | C[C@H](NC(=O)[C@@H](Cc1c[nH]c2ccccc12)NCc1cccc(O)c1)c1ccccc1 (relative stereo) [Example 17, 2-(3-Hydroxy-benzylamino)-3-(1H-indol-3-yl)-N-(1-phenyl-ethyl)-propionamide, [R-(R*,S*)]] |
| 1810 | C[C@H](NC(=O)[C@@](C)(Cc1c[nH]c2ccccc12)NCc1ccn[nH]1)c1ccccc1 (relative stereo) [Example 21, 3-(1H-Indol-3-yl)-2-methyl-N-(1-phenyl-ethyl)-2-[(2H-pyrazol-3-ylmethyl)-amino]-propionamide, [R-(R*,S*)]] |

same assay, conditions: Human lymphoma IM9 cells, [125I]Bolton-Hunter substance P; Table 3, array-synthesis products; read-out: IC50 (nM) hNK1

| IC50 [nM] | SMILES |
| --- | --- |
| 1980 | O=C(NCc1ccccn1)C(Cc1c[nH]c2ccccc12)NCc1cc2ccccc2o1 (stereo not drawn) [Example 192, 2-[(Benzofuran-2-ylmethyl)-amino]-3-(1H-indol-3-yl)-N-pyridin-2-ylmethyl-propionamide] |
| > 10000 | O=C(NCCN1CCNCC1)C(Cc1c[nH]c2ccccc12)NCc1cc2ccccc2o1 (stereo not drawn) [Example 193, 2-[(Benzofuran-2-ylmethyl)-amino]-3-(1H-indol-3-yl)-N-(2-piperazin-1-yl-ethyl)-propionamide] |
| 703 | O=C(NC1CCCc2ccccc21)C(Cc1c[nH]c2ccccc12)NCc1cc2ccccc2o1 (stereo not drawn) [Example 194, 2-[(Benzofuran-2-ylmethyl)-amino]-3-(1H-indol-3-yl)-N-(1,2,3,4-tetrahydro-naphthalen-1-yl)-propionamide] |
| 1750 | O=C(NC1CCc2ccccc21)C(Cc1c[nH]c2ccccc12)NCc1cc2ccccc2o1 (stereo not drawn) [Example 195, 2-[(Benzofuran-2-ylmethyl)-amino]-N-indan-1-yl-3-(1H-indol-3-yl)-propionamide] |
| 92 | CCC(NC(=O)C(Cc1c[nH]c2ccccc12)NCc1cc2ccccc2o1)c1cccs1 (stereo not drawn) [Example 196, 2-[(Benzofuran-2-ylmethyl)-amino]-3-(1H-indol-3-yl)-N-(1-thiophen-2-yl-propyl)-propionamide] |
| 933 | CC(NC(=O)C(Cc1c[nH]c2ccccc12)NCc1cc2ccccc2o1)c1cccc2ccccc12 (stereo not drawn) [Example 197, 2-[(Benzofuran-2-ylmethyl)-amino]-3-(1H-indol-3-yl)-N-(1-naphthalen-1-yl-ethyl)-propionamide] |
| > 10000 | CN1CCCC1CCNC(=O)C(Cc1c[nH]c2ccccc12)NCc1cc2ccccc2o1 (stereo not drawn) [Example 198, 2-[(Benzofuran-2-ylmethyl)-amino]-3-(1H-indol-3-yl)-N-[2-(1-methyl-pyrrolidin-2-yl)-ethyl]-propionamide] |
| 130 | COc1ccc(CNC(=O)C(Cc2c[nH]c3ccccc23)NCc2cc3ccccc3o2)cc1 (stereo not drawn) [Example 199, 2-[(Benzofuran-2-ylmethyl)-amino]-3-(1H-indol-3-yl)-N-(4-methoxy-benzyl)-propionamide] |
| 355 | O=C(NCc1cccc(OC(F)(F)F)c1)C(Cc1c[nH]c2ccccc12)NCc1cc2ccccc2o1 (stereo not drawn) [Example 200, 2-[(Benzofuran-2-ylmethyl)-amino]-3-(1H-indol-3-yl)-N-(3-trifluoromethoxy-benzyl)-propionamide] |
| > 10000 | O=C(NCCCn1ccnc1)C(Cc1c[nH]c2ccccc12)NCc1cc2ccccc2o1 (stereo not drawn) [Example 201, 2-[(Benzofuran-2-ylmethyl)-amino]-N-(3-imidazol-1-yl-propyl)-3-(1H-indol-3-yl)-propionamide] |
| 2180 | O=C(NCC1CCNC1)C(Cc1c[nH]c2ccccc12)NCc1cc2ccccc2o1 (stereo not drawn) [Example 202, 2-[(Benzofuran-2-ylmethyl)-amino]-3-(1H-indol-3-yl)-N-pyrrolidin-3-ylmethyl-propionamide] |
| > 10000 | O=C(NCC1CCNCC1)C(Cc1c[nH]c2ccccc12)NCc1cc2ccccc2o1 (stereo not drawn) [Example 203, 2-[(Benzofuran-2-ylmethyl)-amino]-3-(1H-indol-3-yl)-N-piperidin-4-ylmethyl-propionamide] |
| 68 | O=C(NCc1cc(F)ccc1F)C(Cc1c[nH]c2ccccc12)NCc1cc2ccccc2o1 (stereo not drawn) [Example 204, 2-[(Benzofuran-2-ylmethyl)-amino]-N-(2,5-difluoro-benzyl)-3-(1H-indol-3-yl)-propionamide] |
| 2320 | O=C(NCc1cnc2ccccc2c1)C(Cc1c[nH]c2ccccc12)NCc1cc2ccccc2o1 (stereo not drawn) [Example 205, 2-[(Benzofuran-2-ylmethyl)-amino]-3-(1H-indol-3-yl)-N-quinolin-3-ylmethyl-propionamide] |
| 6680 | O=C(NCCc1c[nH]cn1)C(Cc1c[nH]c2ccccc12)NCc1cc2ccccc2o1 (stereo not drawn) [Example 206, 2-[(Benzofuran-2-ylmethyl)-amino]-N-[2-(1H-imidazol-4-yl)-ethyl]-3-(1H-indol-3-yl)-propionamide] |
| 591 | CC(NC(=O)C(Cc1c[nH]c2ccccc12)NCc1cc2ccccc2o1)c1cccc2ccccc12 (stereo not drawn) [Example 207, 2-[(Benzofuran-2-ylmethyl)-amino]-3-(1H-indol-3-yl)-N-(1-naphthalen-1-yl-ethyl)-propionamide] |
| 15 | Cc1ccc(C(C)NC(=O)C(Cc2c[nH]c3ccccc23)NCc2cc3ccccc3o2)s1 (stereo not drawn) [Example 208, 2-[(Benzofuran-2-ylmethyl)-amino]-3-(1H-indol-3-yl)-N-[1-(5-methyl-thiophen-2-yl)-ethyl]-propionamide] |
| 82 | Cc1ccc(CNC(=O)C(Cc2c[nH]c3ccccc23)NCc2cc3ccccc3o2)cc1 (stereo not drawn) [Example 209, 2-[(Benzofuran-2-ylmethyl)-amino]-3-(1H-indol-3-yl)-N-(4-methyl-benzyl)-propionamide] |
| > 10000 | O=C(NC1(CO)CCCC1)C(Cc1c[nH]c2ccccc12)NCc1cc2ccccc2o1 (stereo not drawn) [Example 211, 2-[(Benzofuran-2-ylmethyl)-amino]-N-(1-hydroxymethylcyclopentyl)-3-(1H-indol-3-yl)-propionamide] |
| 658 | O=C(NCCn1cccc1)C(Cc1c[nH]c2ccccc12)NCc1cc2ccccc2o1 (stereo not drawn) [Example 212, 2-[(Benzofuran-2-ylmethyl)-amino]-3-(1H-indol-3-yl)-N-(2-pyrrol-1-yl-ethyl)-propionamide] |
| 1260 | O=C(NCCN1CCOCC1)C(Cc1c[nH]c2ccccc12)NCc1cc2ccccc2o1 (stereo not drawn) [Example 213, 2-[(Benzofuran-2-ylmethyl)-amino]-3-(1H-indol-3-yl)-N-(2-morpholin-4-yl-ethyl)-propionamide] |
| 4010 | CN(C)c1ccc(CNC(=O)C(Cc2c[nH]c3ccccc23)NCc2cc3ccccc3o2)cc1 (stereo not drawn) [Example 214, 2-[(Benzofuran-2-ylmethyl)-amino]-N-(4-dimethylamino-benzyl)-3-(1H-indol-3-yl)-propionamide] |
| 70 | O=C(NCc1cc(Cl)sc1Cl)C(Cc1c[nH]c2ccccc12)NCc1cc2ccccc2o1 (stereo not drawn) [Example 215, 2-[(Benzofuran-2-ylmethyl)-amino]-N-(2,5-dichloro-thiophen-3-ylmethyl)-3-(1H-indol-3-yl)-propionamide] |
| > 10000 | O=C(NCc1ccc([N+](=O)[O-])o1)C(Cc1c[nH]c2ccccc12)NCc1cc2ccccc2o1 (stereo not drawn) [Example 216, 2-[(Benzofuran-2-ylmethyl)-amino]-3-(1H-indol-3-yl)-N-(5-nitro-furan-2-ylmethyl)-propionamide] |
| 819 | CC(NC(=O)C(Cc1c[nH]c2ccccc12)NCc1cc2ccccc2o1)c1ccc(N(C)C)cc1 (stereo not drawn) [Example 217, 2-[(Benzofuran-2-ylmethyl)-amino]-N-[1-(4-dimethylamino-phenyl)-ethyl]-3-(1H-indol-3-yl)-propionamide] |
| 294 | O=C(NCc1cc(C(F)(F)F)cc(C(F)(F)F)c1)C(Cc1c[nH]c2ccccc12)NCc1cc2ccccc2o1 (stereo not drawn) [Example 218, 2-[(Benzofuran-2-ylmethyl)-amino]-N-(3,5-bis-trifluoromethyl-benzyl)-3-(1H-indol-3-yl)-propionamide] |
| 31 | O=C(NCc1cccc(Br)c1)C(Cc1c[nH]c2ccccc12)NCc1cc2ccccc2o1 (stereo not drawn) [Example 219] |
| 23 | O=C(NCc1ccc([N+](=O)[O-])cc1)C(Cc1c[nH]c2ccccc12)NCc1cc2ccccc2o1 (stereo not drawn) [Example 221, 2-[(Benzofuran-2-ylmethyl)-amino]-3-(1H-indol-3-yl)-N-(4-nitro-benzyl)-propionamide] |
| > 10000 | O=C(NCCN1CCCC1)C(Cc1c[nH]c2ccccc12)NCc1cc2ccccc2o1 (stereo not drawn) [Example 222, 2-[(Benzofuran-2-ylmethyl)-amino]-3-(1H-indol-3-yl)-N-(2-pyrrolidin-1-yl-ethyl)-propionamide] |
| > 10000 | O=C(NCC1CCCO1)C(Cc1c[nH]c2ccccc12)NCc1cc2ccccc2o1 (stereo not drawn) [Example 223, 2-[(Benzofuran-2-ylmethyl)-amino]-3-(1H-indol-3-yl)-N-(tetrahydro-furan-2-ylmethyl)-propionamide] |
